Assay results: PMC10099595, “Multimodal 4-arylchromene derivatives with microtubule-destabilizing, anti-angiogenic, and MYB-inhibitory activities” (Cancer Drug Resistance, 2023)
Where two headings read alike, the source gives them in different places.

Assays:
[1] = tested on: EA.hy926 endothelial hybrid cells; assay: MTT antiproliferative assay, EA.hy926; assay type: cell-based; details: Homo sapiens, EA.hy 926, 72 h
Source text: (§1) The following cell lines were used: 518A2 melanoma (Department of Radiotherapy, Medical University of Vienna, Austria)[15], HeLa cervix carcinoma, KBV1^Vbl (ACC-149 cervix carcinoma, MCF7 [ACC-115]) breast carcinoma, U-87 glioblastoma, HT-29 (ACC-299), HCT-116 (ACC-581) and HCT-116p53-/- colon carcinoma, EA.hy926 (ATCC® CRL-2922^TM) endothelial hybrid cells, and HDFa (ATCC® PCS-201-012^TM) adult human dermal fibroblasts. […] Only mycoplasma-free cultures were used.

518A2 melanoma cells [2] = assay: MTT antiproliferative assay, 518A2; assay type: cell-based; details: Homo sapiens, 72 h
Source text: as §1

[3] = tested on: HCT-116 colon carcinoma cells; assay: MTT antiproliferative assay, HCT-116; assay type: cell-based; details: Homo sapiens, 72 h
Source text: as §1

U-87 glioblastoma cells [4] = assay: MTT antiproliferative assay, U87; assay type: cell-based; details: Homo sapiens, 72 h
Source text: as §1

[5] = tested on: HT-29 colon carcinoma cells; assay: MTT antiproliferative assay, HT-29; assay type: cell-based; details: Homo sapiens, 72 h
Source text: as §1

[6] = tested on: KB-V1^Vbl cervix carcinoma cells; assay: MTT antiproliferative assay, KB-V1Vbl (with or without verapamil); assay type: cell-based, human; details: for IC50: Homo sapiens, KB-V1/Vbl, 72 h, read-out: IC50 KB-V1^Vbl
Source text: as §1

[7] = tested on: HeLa cervix carcinoma cells; assay: MTT antiproliferative assay, HeLa; assay type: cell-based; details: Homo sapiens, 72 h
Source text: as §1

[8] = tested on: MCF-7 breast carcinoma cells; assay: MTT antiproliferative assay, MCF-7; assay type: cell-based; details: Homo sapiens, MCF7, 72 h
Source text: as §1

[9] = tested on: HDFa adult human dermal fibroblasts; assay: MTT cytotoxicity assay, non-malignant HDFa; assay type: cell-based; details: 72 h, non-malignant cells
Source text: as §1

518A2 melanoma cells [10] = assay: Cell-cycle analysis (FACS, propidium iodide); assay type: cell-based, human; details: 518A2 cells, 25 nM, 24 h
Experimental: 518A2 melanoma cells (10 × 10^4 cells/mL, 3 mL/well) were cultivated in six-well plates for 24 h. After the treatment with test compounds (10 and 25 nm), C-A4 (10 and 25 nm), or DMSO (vehicle) for an additional 24 h, the cells were trypsinized, centrifuged (300 × g, 5 min, 4 °C), and fixed in 70% EtOH for min. 24 h. For FACS measurement, cells were washed in PBS and stained with propidium iodide solution (50 µg/mL PI, 50 µg/mL RNase A in 0.1% sodium citrate) for 30 min at 37 °C. The DNA content of at least 10000 single cells was determined using a Beckmann Coulter Cytomics FC500 flow cytometer (λex = 488 nm, λem = 570 nm). CXP software (Beckman Coulter) was used to analyze the cells in the cell cycle phases (sub-G1, G1, S, G2/M).

[11] = tested on: microtubule cytoskeleton of 518A2 melanoma cells; assay: Microtubule immunofluorescence staining; assay type: cell-based, human; details: 518A2 cells, 100 nM
Experimental: The cells were treated with test compounds and controls (25 and 100 nm) for 0.5, 1, 3, and 6 h and washed with cytoskeletal buffer (100 nm PIPES, 3 nm MgCl2, 138 nm KCl, 2 nm EGTA, 300 nm sucrose, pH 6.8). Fixation and permeabilization were performed for 5 min with 3.7% formaldehyde and 0.2% Triton X-100 in a cytoskeletal buffer. The cells were fixed with cold EtOH for 10 s, rehydrated in PBS, and blocked with 1% bovine serum albumin in PBS for 30 min. The microtubules were stained for 1 h with primary (anti-α-tubulin, mouse monoclonal antibody) and secondary antibodies (goat anti-mouse IgG-AF-546, Invitrogen) and washed with PBS between each treatment. Nuclei were stained using DAPI (1 µg/mL in PBS) for 30 min. The coverslips were placed in Roti®-Mount FluorCare. Microtubules (λex = 488 nm, λem = 507 nm) and nuclei (λex = 358 nm, λem = 461 nm) were documented by confocal microscopy (Leica TCS SP5 confocal microscope, 630 × magnification) and edited with ImageJ.

zebrafish larvae = assay: Zebrafish angiogenesis assay (SIV area); assay type: in vivo; details: 48 h treatment
Experimental: Transgenic zebrafish (Tg(fli1:EGFP, casper mutant) were bred at 28 °C.[16] After fertilization, the eggs were transferred to E3-medium (5 mm NaCl, 0.17 mm KCl, 0.33 mm CaCl, 0.33 mm MgSO4, 0.01% methylene blue, pH 7.2), followed by incubation for 24 h. The chorion was manually removed, and the larvae were treated with test compounds or solvent in six-well plates (30 fish per concentration, 5 mL/well) for 48 h. The fluorescent vasculature was documented with a Leica MZ10F and Zeiss AxioCam MRrc. To quantify the angiogenesis, the sub-intestinal vein (SIV) area was measured using ImageJ and expressed as means ± SD with the control set to 100%. The significance of SIV reduction through substance treatment was assessed using one-way analysis of variance (ANOVA), *P < 0.05; **P < 0.01; ***P < 0.001; ****P < 0.0001, with Dunnett´s multiple comparison test (GraphPad Prism 9).

MYB = target: T1, MYB (Homo sapiens, UniProt P10242, K503R/K527R); assay: Luciferase-dependent MYB activity assay (HEK-MYB-Luc reporter cells); assay type: cell-based; details: HEK-293 reporter cells, 16 h; read-out: IC50 inhibition of MYB activity
T1 construct: expressed in transfected cells; host or cells: HEK-293 (HEK-MYB-Luc reporter cell line)
T1 sequence (P10242 whole entry K503R/K527R): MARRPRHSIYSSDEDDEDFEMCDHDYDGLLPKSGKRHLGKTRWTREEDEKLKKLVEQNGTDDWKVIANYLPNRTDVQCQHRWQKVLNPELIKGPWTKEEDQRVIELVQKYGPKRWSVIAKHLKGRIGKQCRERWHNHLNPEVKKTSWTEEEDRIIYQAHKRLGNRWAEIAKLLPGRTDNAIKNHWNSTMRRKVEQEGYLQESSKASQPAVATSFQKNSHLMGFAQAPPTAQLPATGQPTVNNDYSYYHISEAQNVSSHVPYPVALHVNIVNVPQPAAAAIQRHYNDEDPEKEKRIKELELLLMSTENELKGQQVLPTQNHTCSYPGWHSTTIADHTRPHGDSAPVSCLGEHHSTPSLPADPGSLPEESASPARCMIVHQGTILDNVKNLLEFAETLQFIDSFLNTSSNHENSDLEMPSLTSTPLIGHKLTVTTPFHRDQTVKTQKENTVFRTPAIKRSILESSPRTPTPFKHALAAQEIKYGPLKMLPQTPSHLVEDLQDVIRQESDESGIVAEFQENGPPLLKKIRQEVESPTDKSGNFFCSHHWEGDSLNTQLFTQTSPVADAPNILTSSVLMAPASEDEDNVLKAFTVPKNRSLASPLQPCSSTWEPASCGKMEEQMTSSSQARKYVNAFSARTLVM
Experimental: Compounds were tested using the HEK-MYB-Luc reporter cell line, which allows a doxycycline-dependent induction of MYB expression and harbors an MYB-dependent luciferase reporter plasmid, as previously described. After 16 h of substance treatment (0.0001-3 µM), luciferase activities were analyzed as described.

[12] = tested on: tested cancer and hybrid cell lines; assay: MTT assay, average over all tested cancer and hybrid cell lines; details: for IC50: Homo sapiens
Experimental: An 3-(4, 5-dimethylthiazol-2-yl)-2, 5-diphenyl tetrazolium bromid (MTT) assay was used for antiproliferative studies. Cancer cells (5 × 10^4 cells/mL, 100 μL/well) were placed in 96-well plates (10 × 10^4 cells/mL for HDFA and U87 cells), and the cells were incubated for 24 h at 5% CO2 and 95% humidity. Then, cells were treated with test compounds (at various concentrations) or solely with DMSO as a negative control for 72 h. Then, 12.5 μL of a 0.5% MTT solution in phosphate-buffered saline (PBS) was added to the cells, followed by incubation for 2 h at 37 °C. After centrifugation of the plates (300 × g, 5 min, 4 °C), the medium was discarded, and 25 μL of DMSO containing 10% SDS and 0.6% acetic acid was added, followed by incubation at 37 °C for at least 1 h. Formazan absorbance at λ = 570 nm was measured using a Tecan infinite F200 microplate reader and corrected for the background (λ = 630 nm). The 50% inhibitory concentration (IC50) values were calculated from dose-response curves (means ± SD, four independent experiments) compared to DMSO-treated control cells, which were set to 100%. GraphPad Prism 9 was used for curve-fitting.
The selectivity index (SI) was calculated as a measure of selectivity toward cancer cells compared to non-malignant cells.

[13] = tested on: HCT-116 p53-/- colon carcinoma cells; assay: MTT antiproliferative assay, HCT-116 p53-/-; assay type: cell-based; details: Homo sapiens, 72 h
Source text: as §1

[14] = tested on: EA.hy926 endothelial hybrid cells; details: ref Köhler et al.[13]; cited from earlier work
518A2 melanoma cells [15] = details: ref Köhler et al.[13]; cited from earlier work
[16] = tested on: HCT-116 colon carcinoma cells; details: ref Köhler et al.[13]; cited from earlier work
[17] = tested on: HCT-116 p53-/- colon carcinoma cells; details: ref Köhler et al.[13]; cited from earlier work
U-87 glioblastoma cells [18] = details: ref Köhler et al.[13]; read-out: IC50 U87; cited from earlier work
[19] = tested on: HT-29 colon carcinoma cells; details: ref Köhler et al.[13]; cited from earlier work
[20] = tested on: KB-V1^Vbl cervix carcinoma cells; details: without verapamil; ref Köhler et al.[13]; cited from earlier work
[21] = tested on: MCF-7 breast carcinoma cells; details: ref Köhler et al.[13]; cited from earlier work
[22] = tested on: SW620/Ad300 colorectal cancer cells; design: method as in PMID 9187269, PMID 34977876; details: MDR SW620/Ad300 cells; cited from earlier work
[23] = read-out: Average IC50 value of the tested cancer and hybrid cell lines (Ø IC50), average of all cell lines of Table 2
[24] = read-out: Average IC50 value of the tested cancer and hybrid cell lines (Ø IC50)

SMILES	IC50 [1]	IC50 (518A2 melanoma cells [2])	IC50 [3]	IC50 (U-87 glioblastoma cells [4])	IC50 [5]	IC50 [7]	IC50 [8]	IC50 [9]	IC50 [12, 23]	IC50 [13]	IC50 [6]	IC50 [12, 24]	also measured
COc1ccc2c(c1)OC(N)=C(C#N)C2c1cc(I)c(OC)c(I)c1 (centres unmarked) [2F, 2-Amino-3-cyano-4-(3,5-diiodo-4-methoxyphenyl)-7-methoxy-4H-chromene]	20 ± 2 nM	20 ± 0.4 nM	30 ± 5 nM	50 ± 10 nM	60 ± 1 nM	30 ± 3 nM	80 ± 4 nM	> 50000 nM	43 nM				IC50 ([6]; MTT, without verapamil): 70 ± 7 nM; cells arrested before or during mitosis (G2/M) (518A2 melanoma cells [10]): about 74%; time to change/breakdown of the microtubule cytoskeleton [11]: 1 h; effect on SIV growth (angiogenesis) (zebrafish larvae; zebrafish larvae 24 hpf, 50-1000 nM): no significant change in blood vessel growth; concentration above which toxic effect occurs (zebrafish larvae; zebrafish larvae): above 250 nM; IC50 (MYB): 2.31 ± 0.4 nM
C#CCOc1ccc2c(c1)OC(N)=C(C#N)C2c1cc(Br)c(OC)c(OC)c1 (centres unmarked) [compound 3, 2-Amino-3-cyano-4-(3’-bromo-4’, 5’-dimethoxyphenyl)-7-propargyloxy-4H-chromene]	80 ± 2 nM	60 ± 3 nM	300 ± 10 nM	90 ± 3 nM	2100 ± 300 nM	40 ± 2 nM	70 ± 4 nM			90 ± 7 nM	80 ± 3 nM	321 nM	melting point: 206 to 207 °C
COc1c(I)cc(C2C(C#N)=C(N)Oc3c2c(=O)oc2ccccc32)cc1I (centres unmarked) [1C]									> 500 nM				IC50 [14]: 2800 ± 70 nM; IC50 (518A2 melanoma cells [15]): 1500 ± 100 nM; IC50 [16]: 3100 ± 100 nM; IC50 [17]: 2900 ± 60 nM; IC50 (U-87 glioblastoma cells [18]): 5500 ± 300 nM; IC50 [19]: 2500 ± 200 nM; IC50 [20]: 3700 ± 60 nM; IC50 [21]: 3400 ± 200 nM
COc1ccc2c(c1)OC(N)=C(C#N)C2c1cc(Br)c(OC)c(Br)c1 (centres unmarked) [2E, 2-Amino-3-cyano-4-(3’, 5’-dibromo-4’-methoxyphenyl)-7-methoxy-4H-chromene]	20 ± 1 nM	20 ± 2 nM	20 ± 2 nM	20 ± 2 nM	300 ± 2 nM	30 ± 3 nM	80 ± 3 nM	22200 nM		40 ± 3 nM	3200 ± 300 nM	374 nM	fold lower IC50 values combined with verapamil ([6]; KB-V1^Vbl cells, verapamil 1 µM vs none): 320 fold; G2/M cell-cycle arrest (in words) (518A2 melanoma cells [10]): only a slight increase in G2/M phase cells; SI (IC50 HDFa cells/IC50 tumor cell average) ([12]; selectivity index, HDFa vs tumor cell average): 59
CC(=O)O[C@H]1C(=O)[C@@]2(C)[C@H]([C@H](OC(=O)c3ccccc3)[C@]3(O)C[C@H](OC(=O)[C@H](O)[C@@H](NC(=O)c4ccccc4)c4ccccc4)C(C)=C1C3(C)C)[C@]1(OC(C)=O)CO[C@@H]1C[C@@H]2O [paclitaxel]													reduction of effective concentration by treatment with P-gp modulators [22]: 100 fold
